Reference: patent US9403806B1, “Cognition enhancing compounds and compositions, methods of making, and methods of treating” (NeuroSolis, Inc., priority 2010, dated 2016)

Legend:
rat M3 receptors = target: T1, rat M3 receptors (Rattus norvegicus, UniProt P08483); assay: PI turnover (inositol phosphate production) in M3-CHO cells; assay type: cell-based; details: mean Smax relative to carbachol (100.0); CHO cells expressing rat M3
T1 construct: host or cells: CHO (M3-CHO)
Description: The medium was changed to 70 μL/well of inositol-free DMEM containing 2 mM glutamine, 10% FBS and 10 μCi/ml of [3H]-inositol (PE:cat # NET114A250UC), incubated overnight as above, then 100 μL of a solution of the test compound in HBSS containing 10 mM LiCl and 20 mM HEPES, pH 7.4 was added, incubation was continued for 60 min under the above conditions, and the test was stopped by removing the test compound and replacing with 100 μL of 50 mM formic acid in water at 4° C. […] The compounds in Table 1 are all dihydropyrimidine-oxadiazoles which vary only at the oxadiazole side chain.

[1] = Serum pharmacokinetics of immediate release capsules in healthy volunteers; assay type: in vivo, human; details: 5 mg dose cohort, 6 subjects
Description: The hydrochloride salt of MCD-386 (“MCD-386 HCl”) was formulated with the following excipients and loaded into #3 hard gelatin capsules (5 mg dose) or #2 hard gelatin capsules (0.2 mg dose).
A single 5 mg capsule or 5×0.2 mg capsules (1 mg total dose) were administered orally to healthy male volunteer human subjects with 125 ml of water. Six such subjects receiving the 5 mg dose, and a different 6 subjects received the 1 mg dose.
Venous blood samples were drawn at various intervals after dosing from each subject into standard tubes for bioanalytical and pharmacokinetic analysis. The blood was allowed to clot, and the serum separated, using common clinical laboratory techniques. Serum samples were stored at −20 deg C. until used for analysis.
MCD-386 HCl, which exists in serum principally as the protonated form of MCD-386, was assayed in clinical serum samples as follows. […] The MS/MS transitions monitored were 181.1 m/z to 111.0 m/z for MCD-386 HCl and 186.1 m/z to 111.1 m/z for the internal standard, D5-MCD-386 HCl. […] The lower limit of quantitation (LLOQ) was 0.100 ng MCD-386 HCl per mL of serum. MCD-386 HCl concentrations are expressed as free base. […]
The bioanalytical results were analyzed using Win Nonlin software and common pharmacokinetic methods known to those skilled in the art.

[2] = test system: hippocampal inositol phosphate; assay: In vivo tissue inositol phosphate signaling pathway activation, hippocampus; parameters: species or system Long Evans Hooded rats; details: rats, 30 mg/kg sc (FIG. 10B)
Description: Experimental compounds or drug substances were administered using standard techniques to Long Evans Hooded rats weighing 225 to 350 grams, and which had been pretreated with a subcutaneous injection of lithium chloride at a suitable dose between 3 and 10 mmoles per kg. At suitable times the animals were briefly anesthetized using 5% isoflurane and euthanized by decapitation. The brains and submaxillary salivary glands were rapidly dissected out, and the hippocampuses were dissected from the brains. The dissected tissues were homogenized in a suitable volume of ice-cold phosphate-buffered saline containing 10 mM lithium chloride, pH7.4, using a tissue homogenizer, and used immediately or frozen in aliquots at −80 deg C. for future use. The concentration of inositol-1-phosphate was determined in the homogenates using the IPOne TR-FRET assay (CisBio cat no 621PAPEB), following the manufacturer's instruction

CD-I mice = assay: Apomorphine induced climbing model of psychosis; assay type: in vivo; details: mice, sc, apomorphine 2 mg/kg (FIG. 1)
Description: As described in Costall et. al. European Journal of Pharmacology 1978, 50, 39. individual CD-I mice, 1-2 months old, were placed in a cylindrical wire mesh cage (13.2 cm high×13.2 cm diameter) constructed of steel wire 1 mm thick spaced at 1.2 cm^2. Cylinders were placed in a standard OptiMICE mouse cage (29×32×9×29 cm and 14 cm high) with adequate wood chip bedding provided. Observations of climbing (defined as 3 or more paws of the ground) were carried out every 5 minutes at a duration of 1 minute for […]. Animals were injected subcutaneously under isoflurane anesthesia with test compounds, reference compounds, which included clozapine, haloperidol, olanzapine and xanomeline, or PBS as a control. This was followed 5 minutes later by 2 mg/kg apomorphine hydrochloride. All drugs were dissolved in PBS or a mixture of (by volume) 96% PBS and 4% hydroxypropyl-beta-cyclodextrin, and dosed at a rate of 5 ml per kilogram of body weight. Following injections, animals were replaced in the mesh cages and observed for climbing (defined as 3 or more paws off the ground) every 5 minutes for 1 minute for 60 minutes after dosing.

PAMPA test, Example 34 = details: PAMPA

T1 sequence (P08483 whole entry): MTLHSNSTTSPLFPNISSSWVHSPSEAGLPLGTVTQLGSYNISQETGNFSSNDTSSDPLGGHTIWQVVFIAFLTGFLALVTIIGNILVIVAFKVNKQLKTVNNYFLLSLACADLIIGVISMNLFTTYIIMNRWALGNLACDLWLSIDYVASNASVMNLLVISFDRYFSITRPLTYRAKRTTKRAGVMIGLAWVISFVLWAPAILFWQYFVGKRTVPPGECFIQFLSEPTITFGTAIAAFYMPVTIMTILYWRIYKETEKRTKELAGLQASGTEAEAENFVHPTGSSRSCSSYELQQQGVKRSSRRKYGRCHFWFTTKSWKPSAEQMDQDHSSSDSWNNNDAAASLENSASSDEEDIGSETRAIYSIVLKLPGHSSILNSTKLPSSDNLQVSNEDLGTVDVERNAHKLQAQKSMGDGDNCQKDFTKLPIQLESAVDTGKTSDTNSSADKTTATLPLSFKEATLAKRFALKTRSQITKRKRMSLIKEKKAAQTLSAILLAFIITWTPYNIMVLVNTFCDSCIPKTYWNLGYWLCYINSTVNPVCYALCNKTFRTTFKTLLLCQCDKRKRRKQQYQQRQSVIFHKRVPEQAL

SMILES: CCc1noc(C2CN=CNC2)n1 (centres unmarked) [MCD-386, 3-ethyl-5-(1,4,5,6-tetrahydropyrimidin-5-yl)-1,2,4-oxadiazole]
- M3/CHO PI turnover Relative Mean Smax (rat M3 receptors): 46.4
- main metabolite in serum samples [1]: identified in the serum samples of five out of six subjects
- increase in the concentration of IP in the hippocampus [2]: 71%
- activity in the apomorphine induced climbing model (CD-I mice): inactive
- Papp (PAMPA test, Example 34): 0.05 ×10⁻⁶ cm/s
